# Data taken from US6114517A, “Methods of modulating tumor necrosis factor α-induced expression of cell adhesion molecules” (Isis Pharmaceuticals Inc., priority 1998, dated 2000).
# Tests used:
# Format in all cases: cell-based, human
# E-selectin = experiment: TNF-α-induced E-selectin cell surface expression in HMVEC, flow cytometry
# Protocol: (§1) Human dermal microvascular cells (HMVEC-d; Clonetics, San Diego, Calif.) were cultivated in endothelial basal media (EBM, Clonetics) supplemented with 10% fetal bovine serum (HyClone, Logan, Utah). Cells were grown in 100 mm petri dishes until 70-80% confluent, then washed with PBS and OPTI-MEM (Life Technologies, Inc., Gaithersburg, Md.). The cells were then incubated in the presence of OPTI-MEM and […] LIPOFECTIN (a 1:1 (w/w) liposome formulation of the cationic lipid N-[1-(2,3-dioleyloxy)propyl]-n,n,n-trimethylammonium chloride (DOTMA), and dioleoyl phosphotidylethanolamine (DOPE) in membrane filtered water (Life Technologies, Gaithersburg, Md.), per 100 nM of oligonucleotide followed by addition of oligonucleotide at the appropriate concentrations.
# (§2) The effect of c-raf and Ha-ras antisense oligonucleotide treatment on the induction of E-selectin by TNF-α was examined. HMVEC cells were treated with either the c-raf or Ha-ras antisense compound under dose-response conditions or over time at a single dose level followed by stimulation of E-selectin expression by TNF-α for 5 hours. The cell surface expression of E-selectin was determined by flow cytometry analysis. Following oligonucleotide treatment, cells were detached from the plates and analyzed for surface expression of cell adhesion molecules using a Becton Dickinson (San Jose, Calif.) FACScan. TNF-α and FITC conjugated antibody for E-selectin were obtained from R & D Systems (Minneapolis, Minn.). PE-conjugated antibody for ICAM-1 was obtained from Pharmingen (San Diego, Calif.). VCAM-1 antibody was obtained from Santa Cruz Biotechnology, Santa Cruz, Calif. Cell surface expression was calculated using the mean value of fluorescence intensity using 3,000-5,000 cells stained with the appropriate antibody for each sample and time point. Results are expressed as percentage of control (cell surface expression induced by TNF-α in cells that were not treated with oligonucleotides) based upon mean fluorescence intensity.
# The effects of c-raf, Ha-ras, and a E-selectin antisense oligonucleotide on TNF-α-induced E-selectin cell surface expression under kinetic conditions were examined. […] To test this, cells were treated, separately, with antisense oligonucleotides to E-selectin, ICAM-1 and VCAM-1 and allowed to recover prior to TNF-α treatment. […] E-selectin cell surface expression was measured by flow cytometry analysis after 5 hours of TNF-A treatment.
# JNK1 mRNA = JNK1 mRNA expression by Northern blot; conditions: at the concentration tested, FIG. 4
# Protocol: as §1
# (§3) For determination of mRNA levels by Northern blot, total RNA was prepared from cells by the guanidinium isothiocyanate procedure or by the Qiagen RNAEASY method (Qiagen, Santa Clarita, Calif.) at the indicated times after initiation of oligonucleotide treatment. Northern blot analysis was performed as described in Current Protocols in Molecular Biology (Ausubel, F. M., et al., (eds), 1987, Greene Publishing Assoc. and Wiley Interscience, New York). […] RNA was quantified and normalized to G3PDH mRNA levels using a Molecular Dynamic PHOSPHORIMAGER (Sunnyvale, Calif.). […]
# JNK2 mRNA = JNK2 mRNA expression by Northern blot; conditions: at the concentration tested, FIG. 4
# Protocol: as §1, §3
# JNK2 = experiment: TNF-α-mediated JNK2 kinase activity, isoform-specific JNK assay; conditions: FIG. 5
# Protocol: (§4) To examine the effect of the c-raf antisense oligonucleotide (ISIS 12854, SEQ ID NO. 2) on ERK, JNK, and p38 MAPK activities stimulated by TNF-α, in vitro kinase assays were performed on extracts derived from cells treated with ISIS 12854 (SEQ ID NO. 2). Cells were treated with oligonucleotides and induced with cytokines. At the indicated time, cells were lysed on ice and debris was removed by centrifugation. Protein concentration was measured by Bradford assay. Lysate containing equal amounts of protein were incubated with primary antibody-agarose conjugates (ERK and p38 assay; Santa Cruz Biotechnology, Santa Cruz, Calif.), or with JNK1-specific or JNK2-specific antibodies (JNK assay; Upstate Biotechnology, Lake Placid, N.Y.), overnight at 4° C.
# (§5) For isoform-specific JNK assays, anti-rabbit IgG conjugated with agarose beads was added to cell extracts following JNK antibody treatment and wash steps and incubated for 2 hours at 4° C. After washing with lysis buffer and kinase buffer, the pelleted beads were incubated with 1 μg of substrate (Elk-1 for ERK, ATF-2 for p38, and c-Jun for JNK MAPK) and 100 […] of ATP for 20 minutes at 37° C. MAPK and JNK assay kits, ATF-2 fusion protein, and antibodies for ATF-2, Elk-1 phospho-ATF-2 were purchased from New England BioLabs (Boston, Mass.). Reactions were terminated by the addition of 3×SDS sample buffer followed by boiling. […]
# JNK1 = experiment: TNF-α-mediated JNK1 kinase activity, isoform-specific JNK assay; conditions: FIG. 5
# Protocol: as §4, §5
# c-raf mRNA = c-raf mRNA levels by Northern blot in HMVEC
# Protocol: as §1
# (§6) For determination of mRNA levels by Northern blot, total RNA was prepared from cells by the guanidinium isothiocyanate procedure or by the Qiagen RNAEASY method (Qiagen, Santa Clarita, Calif.) at the indicated times after initiation of oligonucleotide treatment. Northern blot analysis was performed as described in Current Protocols in Molecular Biology (Ausubel, F. M., et al., (eds), 1987, Greene Publishing Assoc. and Wiley Interscience, New York). A glyceraldehyde 3-phosphate dehydrogenase (G3PDH) probe was purchased from Clontech (Palo Alto, Calif., Catalog Number 9805-1). RNA was quantified and normalized to G3PDH mRNA levels using a Molecular Dynamic PHOSPHORIMAGER (Sunnyvale, Calif.).
# ISIS 12854 (SEQ ID NO. 2) is a 2'-O-methoxyethyl mixed backbone chimeric antisense oligonucleotide designed to hybridize with 3'-untranslated sequences contained within human c-raf mRNA. To determine whether this antisense oligonucleotide is effective as a c-raf inhibitor in endothelial cells, human dermal microvascular cells (HMVEC) were treated with ISIS 12854 (SEQ ID NO. 2) as described in Example 2. C-raf mRNA and protein expression was examined by northern and Western blot analysis. The c-raf cDNA probe was generated from the plasmid, p627 (American Type Culture Collection, Manassas, Va.; catalog #41050), following the supplied instructions. The c-raf antibody was obtained from Transduction Laboratories, Inc. (Lexington, Ky.).
# ICAM-1 = experiment: TNF-α-induced ICAM-1 cell surface expression in HMVEC, flow cytometry
# Protocol: as §1
# as §2, with “intensity. Basal expression of E-selectin and VCAM-1 is undetectable in the absence of TNF-α whereas a low level of basal expression is detectable for ICAM-1.” for “intensity.”
# (§7) TNF-α induction of ICAM-1 and VCAM-1 in cells treated with c-raf and Ha-ras antisense oligonucleotides was also examined to further define the roles of c-raf and Ha-ras in cytokine signaling. Oligonucleotides were tested, using flow cytometry analysis, as described in Example 4. Results are shown in Table 6 (ICAM-1) and Table 7 (VCAM-1).
# VCAM-1 = experiment: TNF-α-induced VCAM-1 cell surface expression in HMVEC, flow cytometry
# Protocol: as §1
# as §2, with “intensity. Basal expression of E-selectin and VCAM-1 is undetectable in the absence of TNF-α whereas a low level of basal expression is detectable for ICAM-1.” for “intensity.”
# as §7
# E-selectin mRNA = experiment: TNF-α-induced E-selectin mRNA, Northern blot; conditions: 48 hrs recovery, TNF-α two to three hours before RNA analysis
# Protocol: as §6
# (§8) Northern blot analysis was carried out to examine whether c-raf and Ha-ras antisense oligonucleotides inhibit the induction of cell adhesion molecules at the transcriptional level. Cells were treated with c-raf (ISIS 12854, SEQ ID NO. 2) or Ha-ras (ISIS 15168, SEQ ID NO. 4) antisense oligonucleotides and allowed to recover for 48 hrs. TNF-α was added two to three hours prior to RNA analysis and Northern blotting was performed with probes specific for E-selectin, ICAM-1, and VCAM-1. The probe for E-selectin was obtained by PCR amplification using primers directed to HUMELAM1A (Genbank Accession No. M24736; SEQ ID NO. 18).
# ICAM-1 mRNA = experiment: TNF-α-induced ICAM-1 mRNA, Northern blot; conditions: 48 hrs recovery, TNF-α two to three hours before RNA analysis
# Protocol: as §6, §8
# VCAM-1 mRNA = experiment: TNF-α-induced VCAM-1 mRNA, Northern blot; conditions: 48 hrs recovery, TNF-α two to three hours before RNA analysis
# Protocol: as §6, §8
# [1] = Table 9, JNK antisense series, 20 nM
# [2] = Table 9, JNK antisense series, 50 nM
# [3] = Table 9, JNK antisense series, 100 nM
# [4] = time course, 12 h/20 h after oligonucleotide treatment, TNF-α 5 hours
# [5] = time course, 48 h after oligonucleotide treatment, TNF-α 5 hours
# [6] = time course, 72 h after oligonucleotide treatment, TNF-α 5 hours
substance,measurement,setting,value
GoToCoCoGoGsGsCsCsAsGsGsCsCsAsAoAoGoToC [ISIS 15354],% Cell Surface Expression (E-selectin),E-selectin; [1],32%
same,% Cell Surface Inhibition (E-selectin),E-selectin; [1],68%
same,% Cell Surface Expression (E-selectin),E-selectin; [2],29%
same,% Cell Surface Inhibition (E-selectin),E-selectin; [2],71%
same,% Cell Surface Expression (E-selectin),E-selectin; [3],33%
same,% Cell Surface Inhibition (E-selectin),E-selectin; [3],67%
same,JNK1 mRNA expression,JNK1 mRNA,without affecting
same,JNK2 mRNA expression,JNK2 mRNA,nearly complete inhibition
same,TNF-α-mediated induction of JNK2 activity,JNK2,effectively reduced
CoToCoToCoTsGsTsAsGsGsCsCsCsGsCoToToGoG [ISIS 15347],% Cell Surface Expression (E-selectin),E-selectin; [1],89%
same,% Cell Surface Inhibition (E-selectin),E-selectin; [1],11%
same,% Cell Surface Expression (E-selectin),E-selectin; [2],84%
same,% Cell Surface Inhibition (E-selectin),E-selectin; [2],16%
same,% Cell Surface Expression (E-selectin),E-selectin; [3],82%
same,% Cell Surface Inhibition (E-selectin),E-selectin; [3],18%
same,JNK1 mRNA expression,JNK1 mRNA,nearly complete inhibition
same,TNF-α-mediated induction of JNK1 activity,JNK1,effectively reduced
"AoToGoCoAoTsTsCsTsGsCsCsCsCsCoAoAoGoGoA [ISIS 15727, reference compound]",effect on c-raf mRNA,c-raf mRNA,did not exhibit any effect
same,% mRNA Expression (c-raf),c-raf mRNA; 100 nM,96%
same,% mRNA Inhibition (c-raf),c-raf mRNA; 100 nM,4%
same,% mRNA Expression (c-raf),c-raf mRNA; 200 nM,135%
same,% Cell Surface Expression (E-selectin),"E-selectin; 25 nM, TNF-α for 5 hours, % of control",119%
same,% Cell Surface Inhibition (E-selectin),"E-selectin; 75 nM, TNF-α for 5 hours",6%
same,% Cell Surface Expression (E-selectin),"E-selectin; 75 nM, TNF-α for 5 hours, % of control",94%
same,% Cell Surface Expression (E-selectin),"E-selectin; 150 nM, TNF-α for 5 hours, % of control",106%
same,% Cell Surface Expression (E-selectin),E-selectin; [1],137%
same,% Cell Surface Expression (E-selectin),E-selectin; [2],128%
same,% Cell Surface Expression (E-selectin),E-selectin; [3],124%
same,effect on E-selectin induction,"E-selectin; dose response, HMVEC",little to no effect
same,% Cell Surface Expression (E-selectin),E-selectin; [4],93%
same,% Cell Surface Inhibition (E-selectin),E-selectin; [4],7%
same,% Cell Surface Expression (E-selectin),E-selectin; [5],106%
same,% Cell Surface Expression (E-selectin),E-selectin; [6],81%
same,% Cell Surface Inhibition (E-selectin),E-selectin; [6],19%
same,% Cell Surface Expression (ICAM-1),ICAM-1; 20 nM,97%
same,% Cell Surface Inhibition (ICAM-1),ICAM-1; 20 nM,3%
same,% Cell Surface Expression (ICAM-1),ICAM-1; 50 nM,89%
same,% Cell Surface Inhibition (ICAM-1),ICAM-1; 50 nM,11%
same,% Cell Surface Expression (ICAM-1),ICAM-1; 100 nM,87%
same,% Cell Surface Inhibition (ICAM-1),ICAM-1; 100 nM,13%
same,% Cell Surface Expression (VCAM-1),VCAM-1; 20 nM,69%
same,% Cell Surface Inhibition (VCAM-1),VCAM-1; 20 nM,31%
same,% Cell Surface Expression (VCAM-1),VCAM-1; 50 nM,81%
same,% Cell Surface Inhibition (VCAM-1),VCAM-1; 50 nM,19%
same,% Cell Surface Expression (VCAM-1),VCAM-1; 100 nM,74%
same,% Cell Surface Inhibition (VCAM-1),VCAM-1; 100 nM,26%
same,% mRNA Expression (E-selectin),E-selectin mRNA,103%
same,% mRNA Expression (ICAM-1),ICAM-1 mRNA,107%
same,% mRNA Expression (VCAM-1),VCAM-1 mRNA,113%
"GsAsAsGsTsCsAsGsCsCsAsAsGsAsAsCsAsGsCsT (GAAGTCAGCCAAGAACAGCT; all phosphorothioate, sugars by position and methylation of C not given here) [ISIS 11928, fully phosphorothioated oligonucleotide with all 2'-methoxyethoxy nucleotides except a 3' terminal 2'-deoxy nucleotide, antisense to E-selectin]",block of E-selectin cell surface expression,"E-selectin; concentrations as low as 20 nM, 12 hours following treatment",80%
same,% Cell Surface Expression (E-selectin),E-selectin; [4],22%
same,% Cell Surface Inhibition (E-selectin),E-selectin; [4],78%
same,% Cell Surface Expression (E-selectin),E-selectin; [5],29%
same,% Cell Surface Inhibition (E-selectin),E-selectin; [5],71%
same,% Cell Surface Expression (E-selectin),E-selectin; [6],32%
same,% Cell Surface Inhibition (E-selectin),E-selectin; [6],68%
